In patent US12691063B1, “Methods of using radiprodil in the treatment of disorders” (GRIN Therapeutics, Inc., priority 2023, dated 2026):
Where “and” joins values, the source holds several entries; their conditions need not be identical. Equal entries are not always repeated.

Experiments:
PTZ-induced convulsions = test: Juvenile PTZ rat model of generalized clonic-tonic seizures; assay type: in vivo; settings: 10 mg/kg; postnatal day 12 and postnatal day 18 rats
Method: (§1) Radiprodil anticonvulsant efficacy was specifically tested in rats at different time points during postnatal development, using pentylenetetrazole (PTZ) as a convulsant, to induce generalized clonic-tonic seizures. The activity of radiprodil in this juvenile PTZ rat model was tested up to 30 mg/kg, showing efficacy at a dose of 1 mg/kg. The calculated free plasma fraction of an orally administered 1 mg/kg dose is expected to give around 60% occupancy of the NR2B receptor, based on an ex-vivo occupancy study in rodents and assuming a 1:1 brain to plasma ratio, see below for further details.

NR2B receptor = biological target: T1, NR2B receptor (Rattus norvegicus, UniProt P35439+Q00960); test: NR2B occupancy calculated from ex-vivo occupancy study in rodents; settings: po; orally administered 1 mg/kg dose; calculated free plasma fraction; 1:1 brain to plasma ratio assumed
T1 construct: from tissue; host or cells: rodent brain (ex vivo)
Method: as §1

[1] = 4-week juvenile rat toxicology study; assay type: in vivo; settings: 0.05 mg/kg bid starting dose
Method: The starting dose for each participant enrolled in the study will be set at 0.05 mg/kg bid. […] In patients with neuropathic pain, a total daily dose of 135 mg (45 mg tid) up to 14 weeks has been previously administered. […] Dose Escalation
For the sites not located in the US, based on the dedicated PBPK model, the increment will be a dose expected to give no more than a 2.5-fold higher plasma concentration.

[2] = system: patients with GRIN-related neurodevelopmental disorder and GoF variants, countable motor seizures (CMS); test: Open-label phase 1B study, seizure cohort; assay type: in vivo, human
Text: Investigational Product (IP): Radiprodil. This example describes an open-label, multicenter phase 1B study being conducted to evaluate the safety, tolerability, and pharmacokinetics (PK) of multiple individually titrated doses of radiprodil and to assess the treatment effect on seizures in participants with drug-resistant seizures caused by gain-of-function (GoF) variants in the GRIN1, GRIN2A, GRIN2B, or GRIN2D genes (GRIN2B GoF variants in the US only).
(§2) This is a global, open-label, multicenter, phase 1B study to evaluate the safety, tolerability, and PK of multiple individually titrated doses of radiprodil and to assess the treatment effect on seizures and behavioral symptoms in 2 cohorts of pediatric participants: 1 cohort of participants with drug resistant seizures (with or without behavioral symptoms) (Cohort 1) and 1 cohort of participants with behavioral symptoms (but no qualifying seizures) (Cohort 2) caused by GoF variants in the GRIN1, 2A, 2B, or 2D genes (GRIN2B GoF variants only in the US). These GoF variants are gene mutations that cause an increased sensitivity of NMDA receptors to glutamate or through decreased inhibition by magnesium, altered affinity to glycine, or other relevant changes considered to increase NMDA transmission. Drug-resistant seizures are defined as a failure to respond to at least 2 antiseizure medication (ASM) therapies taken at adequate doses for an appropriate duration with assured medication adherence as determined by the treating physician. Participants with seizures to be enrolled in the first cohort should have at least 1 observable motor seizure per week and ≥4 observable motor seizures in the prospective 4-week Observation Period.
A seizure cohort of patients from 6 months to 12 years of age with known GoF variants confirmed via method described in Myers, et al., Hum Mol Genetics. 2023, 32:2857-2871, was enrolled. The patients had drug-resistant seizures with or without behavioral symptoms. Patients also had ≥1 weekly countable motor seizure (CMS) with ≥4 generalized or focal seizures during the observation period. Motor seizures included drop seizures; generalized onset seizures included tonic-clonic, tonic, bilateral clonic, atonic, myoclonic-atonic, and myoclonic-tonic-clonic seizures; and focal seizures included seizures with bilateral hyperkinetic motor features and clonic seizures.
Primary endpoints included safety, tolerability, and radiprodil plasma concentrations. Key secondary endpoints (aka, change from baseline in observable daily CMS frequency using an electronic diary (eDiary)), included ≥50%, ≥90%, and 100% reductions from baseline in seizure frequency; proportion of seizure-free days; and Clinical Global Impressions of Change (CGI-C) and Caregiver Global Impressions of Change (CaGI-C), from baseline to the end of the maintenance period.

[3] = system: patients with GRIN-related neurodevelopmental disorder and GoF variants, behavioral symptoms; test: Open-label phase 1B study, behavioral cohort; assay type: in vivo, human
Text: as §2
A behavioral cohort of patients from 6 months to 12 years of age with known GoF variants confirmed via method described in Myers, et al., Hum Mol Genetics. 2023, 32:2857-2871, was enrolled. […] Motor seizures included drop seizures; generalized onset seizures included tonic-clonic, tonic, bilateral clonic, atonic, myoclonic-atonic, and myoclonic-tonic-clonic seizures; and focal seizures included seizures with bilateral hyperkinetic motor features and clonic seizures.

[4] = all unrelated to radiprodil treatment

T1 sequence (Q00960 27-1482, other chains not shown): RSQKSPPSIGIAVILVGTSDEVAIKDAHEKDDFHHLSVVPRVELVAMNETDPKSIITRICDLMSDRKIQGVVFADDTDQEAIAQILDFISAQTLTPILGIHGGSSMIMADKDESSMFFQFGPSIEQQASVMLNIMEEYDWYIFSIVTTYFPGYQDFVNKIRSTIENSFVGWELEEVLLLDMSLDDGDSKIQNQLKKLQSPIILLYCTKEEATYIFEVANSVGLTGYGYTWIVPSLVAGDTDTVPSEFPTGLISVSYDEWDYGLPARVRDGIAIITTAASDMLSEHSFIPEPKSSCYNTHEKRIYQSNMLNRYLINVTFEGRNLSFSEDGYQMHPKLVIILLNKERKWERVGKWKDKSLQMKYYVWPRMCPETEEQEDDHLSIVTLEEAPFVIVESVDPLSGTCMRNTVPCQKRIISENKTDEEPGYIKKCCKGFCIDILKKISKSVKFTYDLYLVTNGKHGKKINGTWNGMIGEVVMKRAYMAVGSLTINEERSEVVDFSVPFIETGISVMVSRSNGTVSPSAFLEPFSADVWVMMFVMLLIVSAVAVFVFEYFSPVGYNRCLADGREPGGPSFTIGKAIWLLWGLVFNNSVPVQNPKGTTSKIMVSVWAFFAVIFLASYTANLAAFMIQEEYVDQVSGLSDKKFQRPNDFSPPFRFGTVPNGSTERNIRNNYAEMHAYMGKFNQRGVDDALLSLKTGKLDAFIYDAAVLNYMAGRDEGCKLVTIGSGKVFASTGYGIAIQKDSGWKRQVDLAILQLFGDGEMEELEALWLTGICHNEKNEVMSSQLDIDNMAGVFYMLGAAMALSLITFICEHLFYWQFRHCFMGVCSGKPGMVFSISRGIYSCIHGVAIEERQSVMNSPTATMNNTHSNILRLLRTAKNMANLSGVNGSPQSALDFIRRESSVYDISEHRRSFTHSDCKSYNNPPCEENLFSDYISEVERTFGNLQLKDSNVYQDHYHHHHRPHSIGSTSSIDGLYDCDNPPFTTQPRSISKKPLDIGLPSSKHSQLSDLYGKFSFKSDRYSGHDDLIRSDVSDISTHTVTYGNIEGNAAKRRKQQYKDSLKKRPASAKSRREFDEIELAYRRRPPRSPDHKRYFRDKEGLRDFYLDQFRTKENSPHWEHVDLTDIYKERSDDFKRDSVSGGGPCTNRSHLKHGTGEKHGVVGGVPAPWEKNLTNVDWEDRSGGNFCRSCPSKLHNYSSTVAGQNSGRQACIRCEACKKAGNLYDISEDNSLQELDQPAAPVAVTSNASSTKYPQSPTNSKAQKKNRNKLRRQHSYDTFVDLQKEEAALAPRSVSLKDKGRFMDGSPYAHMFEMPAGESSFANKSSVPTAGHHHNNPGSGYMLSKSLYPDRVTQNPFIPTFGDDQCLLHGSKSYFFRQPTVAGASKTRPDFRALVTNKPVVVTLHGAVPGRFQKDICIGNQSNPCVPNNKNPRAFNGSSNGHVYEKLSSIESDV

## O=C(Nc1ccc2[nH]c(=O)oc2c1)C(=O)N1CCC(Cc2ccc(F)cc2)CC1 [radiprodil, Radiprodil]
PTZ-induced convulsions
  tonic phases of PTZ-induced convulsions: completely blocked
NR2B receptor
  receptor occupancy at 1 mg/kg: ~60%
[1]
  exposure level (total Cmax and AUC) lower than NOAEL exposure in juvenile rat toxicology study: more than 20 fold
[2]; 8-week maintenance period
  patients seizure-free during 80% of days: 6 of 7
[2]; Example 4
  tolerability: generally well-tolerated
[2]; Seizure Cohort (n = 8)
  Any TEAE: 8 (100) n (%)
  TEAE Abnormal behavior: 1 (12.5) n (%)
  TEAE Agitation: 1 (12.5) n (%)
  TEAE Cough: 2 (25.0) n (%)
  TEAE Diarrhoea: 2 (25.0) n (%)
  TEAE Dystonia: 2 (25.0) n (%)
  TEAE Fatigue: 1 (12.5) n (%)
  TEAE Gastroenteritis: 2 (25.0) n (%)
  TEAE Pyrexia: 4 (50.0) n (%)
  TEAE Respiratory tract infection: 2 (25.0) n (%)
[2]; after radiprodil treatment
  seizure cohort patients with reductions from baseline in CMS frequency: 6 of the 7 and 6 of 7
[2]; [4]
  patients who experienced SAEs: Three
[2]; caregivers, seizure cohort
  Caregiver Global Impressions of Change (CaGI-C): clinical improvement in most patients
[2]; clinicians, seizure cohort
  Clinical Global Impressions of Change (CGI-C): clinical improvement in most patients
[2]; seizure cohort
  reduction in CMS frequency in most patients: ≥ 50%
[3]; Behavioral Cohort (n = 7)
  Any TEAE: 6 (85.7) n (%)
  TEAE Abnormal behavior: 2 (28.6) n (%)
  TEAE Agitation: 2 (28.6) n (%)
  TEAE Cough: 1 (14.3) n (%)
  TEAE Diarrhea: 2 (28.6) n (%)
  TEAE Dystonia: 1 (14.3) n (%)
  TEAE Fatigue: 2 (28.6) n (%)
  TEAE Gastroenteritis: 1 (14.3) n (%)
  TEAE Pyrexia: 1 (14.3) n (%)
  TEAE Respiratory tract infection: 2 (28.6) n (%)
[3]; Example 9
  tolerability: generally well-tolerated
[3]; [4]
  patients who experienced SAEs: Three
[3]; caregivers, behavioral cohort
  Caregiver Global Impressions of Change (CaGI-C): clinical improvement in most patients
[3]; clinicians, behavioral cohort
  Clinical Global Impressions of Change (CGI-C): clinical improvement in most patients
